Measured values from patent publication US20250073206A1, “SOLID FORMS OF […] […] USES THEREOF” (Sensorium Therapeutics, Inc., priority 2021, published 2025).
Values after ≈ are worked out from the molar mass of the structure shown.

Tests used:
[1] = Approximate solubility by visual observation at 25° C.; type: physicochemical; conditions: thermodynamic from solid
Method: About 5 mg of batch 1 was weighed into a 2 mL glass vial and aliquots of 20 μL of each solvent were added to get a clear solution. Max. volume of each solvent added was 1 mL.

[2] = molecular target: sodium-dependent serotonin transporter (SERT) (Homo sapiens, UniProt P31645); conditions: naturally occurring, from Sceletium tortuosum; cited from earlier work
Sequence of sodium-dependent serotonin transporter (SERT) (P31645 whole entry, species assumed): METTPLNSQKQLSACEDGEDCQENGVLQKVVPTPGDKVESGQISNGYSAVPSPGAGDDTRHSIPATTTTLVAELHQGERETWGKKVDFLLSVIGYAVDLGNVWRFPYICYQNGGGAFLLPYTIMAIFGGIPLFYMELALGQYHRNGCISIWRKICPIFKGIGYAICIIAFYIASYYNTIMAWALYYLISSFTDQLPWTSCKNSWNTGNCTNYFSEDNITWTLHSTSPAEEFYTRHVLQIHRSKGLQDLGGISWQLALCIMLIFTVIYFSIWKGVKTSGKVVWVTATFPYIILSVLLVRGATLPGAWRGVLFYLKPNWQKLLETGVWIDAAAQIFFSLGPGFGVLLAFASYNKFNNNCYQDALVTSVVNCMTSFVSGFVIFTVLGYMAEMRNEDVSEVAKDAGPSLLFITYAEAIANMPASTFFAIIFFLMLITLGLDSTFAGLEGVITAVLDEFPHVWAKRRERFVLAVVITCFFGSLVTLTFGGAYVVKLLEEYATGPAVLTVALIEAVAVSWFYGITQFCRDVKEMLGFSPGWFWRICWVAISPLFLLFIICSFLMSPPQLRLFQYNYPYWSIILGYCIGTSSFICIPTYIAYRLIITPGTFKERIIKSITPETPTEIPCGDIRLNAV

Compound: COc1ccc([C@@]23CCC(=O)C[C@@H]2N(C)CC3)cc1OC [(−) mesembrine, 3a-(3,4-dimethoxyphenyl)-octahydro-1-methyl-6H-indol-6-one]
- solubility ([1]; organic solvent or mixture, Acetone): 125 to 250 mg/mL (≈ 432 to 864 mM)
- solubility ([1]; organic solvent or mixture, Acetonitrile): 125 to 250 mg/mL (≈ 432 to 864 mM)
- solubility ([1]; organic solvent or mixture, Dichloromethane): 125 to 250 mg/mL (≈ 432 to 864 mM)
- solubility ([1]; organic solvent or mixture, Ethanol): 125 to 250 mg/mL (≈ 432 to 864 mM)
- solubility ([1]; organic solvent or mixture, Ethyl acetate): 125 to 250 mg/mL (≈ 432 to 864 mM)
- solubility ([1]; organic solvent or mixture, Methanol): 125 to 250 mg/mL (≈ 432 to 864 mM)
- solubility ([1]; organic solvent or mixture, Tetrahydrofuran): 125 to 250 mg/mL (≈ 432 to 864 mM)
- solubility ([1]; organic solvent or mixture, Toluene): 7 to 10 mg/mL (≈ 24.2 to 34.6 mM)
- solubility ([1]; organic solvent or mixture, t-Butyl methyl ether): 125 to 250 mg/mL (≈ 432 to 864 mM)
- solubility ([1]; Water): 125 to 250 mg/mL (≈ 432 to 864 mM)
- serotonin (5-HT) uptake inhibitory activity [2]: serotonin (5-HT) uptake inhibitory activity
